Test results taken from patent US20250179061A1 (SIRONAX LTD., priority 2022, published 2025).
pIC50: −log10 of the molar value.

System: HT-29 cells
Experiment: HT-29 necroptosis cell viability assay (TNF-α/SMAC mimetic/zVAD-FMK, CellTiter-Glo)
Type: cell-based
Details: HT-29 necroptosis cell viability assay; class symbols for IC50; read-out: Activity
Outline: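 Necroptosis was triggered by TNF-α (10 ng/ml), SMAC mimetic (6 μM) and zVAD-FMK (10 μM) in serum-free medium during 20 h compound exposure (10 concentrations, threefold steps) of HT-29 cells. IC50 from duplicate dose-responses uses CellTiter-Glo ATP luminescence as viability read-out.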

Work on `Cc1nc(C2CC(C(N)=O)C2)sc1Oc1ccc(-n2ncn(Cc3c(F)cccc3F)c2=O)cc1F` (stereo not drawn) [Example 167, 3-(5-(4-(4-(2,6-difluorobenzyl)-5-oxo-4,5-dihydro-1H-1,2,4-triazol-1-yl)-2-fluorophenoxy)-4-methylthiazol-2-yl)cyclobutane-1-carboxamide] yielded a pIC50 of over 7.00.

Same assay, conditions: Homo sapiens, HT-29, HT-29 necroptosis cell viability assay; class symbols for IC50; read-out: Activity

`Cc1c(CC(N)=O)nn(C)c1Oc1ccc(-n2ncn(Cc3c(F)cccc3F)c2=O)cc1F` [Example 143, 2-(5-(4-(4-(2,6-difluorobenzyl)-5-oxo-4,5-dihydro-1H-1,2,4-triazol-1-yl)-2-fluorophenoxy)-1,4-dimethyl-1H-pyrazol-3-yl)acetamide] and `Cc1nc(CC(N)=O)sc1Oc1ccc(-n2ncn(Cc3c(F)cccc3F)c2=O)cc1F` [Example 168, 2-(5-(4-(4-(2,6-difluorobenzyl)-5-oxo-4,5-dihydro-1H-1,2,4-triazol-1-yl)-2-fluorophenoxy)-4-methylthiazol-2-yl)acetamide] cannot be ordered by pIC50: over 7.00 for the first, over 7.00 for the second.

`CC1(O)CN(c2nc(C(F)F)c(Oc3ccc(-n4ncn(Cc5c(F)cccc5F)c4=O)cc3F)s2)C1` [Example 144, 4-(2,6-difluorobenzyl)-2-(4-((4-(difluoromethyl)-2-(3-hydroxy-3-methylazetidin-1-yl)thiazol-5-yl)oxy)-3-fluorophenyl)-2,4-dihydro-3H-1,2,4-triazol-3-one] and `CC1(N)CN(c2nc(C(F)F)c(Oc3ccc(-n4ncn(Cc5c(F)cccc5F)c4=O)cc3F)s2)C1` [Example 153, 2-(4-((2-(3-amino-3-methylazetidin-1-yl)-4-(difluoromethyl)thiazol-5-yl)oxy)-3-fluorophenyl)-4-(2,6-difluorobenzyl)-2,4-dihydro-3H-1,2,4-triazol-3-one] cannot be ordered by pIC50: over 7.00 for the first, over 7.00 for the second.

`O=c1n(Cc2c(F)cccc2F)cnn1-c1ccc(Oc2scnc2CO)c(F)c1` [Example 145, 4-(2,6-difluorobenzyl)-2-(3-fluoro-4-((4-(hydroxymethyl)thiazol-5-yl)oxy)phenyl)-2,4-dihydro-3H-1,2,4-triazol-3-one] and `O=c1n(Cc2c(F)cccc2F)cnn1-c1ccc(Oc2scnc2C(F)F)c(F)c1` [Example 147, 4-(2,6-difluorobenzyl)-2-(4-((4-(difluoromethyl)thiazol-5-yl)oxy)-3-fluorophenyl)-2,4-dihydro-3H-1,2,4-triazol-3-one] cannot be ordered by pIC50: over 7.00 for the first, over 7.00 for the second.

First: Cc1nc(CO)c(Oc2ccc(-n3ncn(Cc4c(F)cccc4F)c3=O)cc2)s1 [Example 146]
Second: Cc1nc(CO)sc1Oc1ccc(-n2ncn(Cc3c(F)cccc3F)c2=O)cc1 [Example 157, 4-(2,6-difluorobenzyl)-2-(4-((2-(hydroxymethyl)-4-methylthiazol-5-yl)oxy)phenyl)-2,4-dihydro-3H-1,2,4-triazol-3-one]
The pIC50 of the first is lower: 6.00 to 7.00 for the first, over 7.00 for the second. The second is the more potent here.

`Cc1nc(C(=O)NCCN)sc1Oc1ccc(-n2ncn(Cc3ccccc3F)c2=O)cc1F` [Example 148, N-(2-aminoethyl)-5-(2-fluoro-4-(4-(2-fluorobenzyl)-5-oxo-4,5-dihydro-1H-1,2,4-triazol-1-yl)phenoxy)-4-methylthiazole-2-carboxamide] and `C/C(=N\O)c1nc(C)c(Oc2ccc(-n3ncn(Cc4c(F)cccc4F)c3=O)cc2F)s1` [Example 164, 4-(2,6-difluorobenzyl)-2-(3-fluoro-4-((2-(1-(hydroxyimino)ethyl)-4-methylthiazol-5-yl)oxy)phenyl)-2,4-dihydro-3H-1,2,4-triazol-3-one] cannot be ordered by pIC50: over 7.00 for the first, over 7.00 for the second.

`O=c1n(Cc2c(F)cccc2F)cnn1-c1ccc(Oc2ncsc2C(F)F)c(F)c1` [Example 152, 4-(2,6-difluorobenzyl)-2-(4-((5-(difluoromethyl)thiazol-4-yl)oxy)-3-fluorophenyl)-2,4-dihydro-3H-1,2,4-triazol-3-one] and `Cc1cc(Oc2ccc(-n3ncn(Cc4c(F)cccc4F)c3=O)cc2F)n(C)n1` [Example 172, 4-(2,6-difluorobenzyl)-2-(4-((1,3-dimethyl-1H-pyrazol-5-yl)oxy)-3-fluorophenyl)-2,4-dihydro-3H-1,2,4-triazol-3-one] cannot be ordered by pIC50: over 7.00 for the first, over 7.00 for the second.

`Cc1nc(CC(C)(C)O)sc1Oc1ccc(-n2ncn(Cc3c(F)cccc3F)c2=O)cc1F` [Example 154, 4-(2,6-difluorobenzyl)-2-(3-fluoro-4-((2-(2-hydroxy-2-methylpropyl)-4-methylthiazol-5-yl)oxy)phenyl)-2,4-dihydro-3H-1,2,4-triazol-3-one] and `Cc1nc(CO)sc1Oc1ccc(-n2ncn(Cc3c(F)cccc3F)c2=O)cc1F` [Example 156, 4-(2,6-difluorobenzyl)-2-(3-fluoro-4-((2-(hydroxymethyl)-4-methylthiazol-5-yl)oxy)phenyl)-2,4-dihydro-3H-1,2,4-triazol-3-one] cannot be ordered by pIC50: over 7.00 for the first, over 7.00 for the second.

`Cc1nc(CC#N)sc1Oc1ccc(-n2ncn(Cc3c(F)cccc3F)c2=O)cc1F` [Example 155, 2-(5-(4-(4-(2,6-difluorobenzyl)-5-oxo-4,5-dihydro-1H-1,2,4-triazol-1-yl)-2-fluorophenoxy)-4-methylthiazol-2-yl)acetonitrile] and `Cc1nc(CN)sc1Oc1ccc(-n2ncn(Cc3c(F)cccc3F)c2=O)cc1F` [Example 159, 2-(4-((2-(aminomethyl)-4-methylthiazol-5-yl)oxy)-3-fluorophenyl)-4-(2,6-difluorobenzyl)-2,4-dihydro-3H-1,2,4-triazol-3-one] cannot be ordered by pIC50: over 7.00 for the first, over 7.00 for the second.

`Cc1c(CO)nn(C)c1Oc1ccc(-n2nc3n(c2=O)C(c2ccccc2)CC3)cc1F` (stereo not drawn) [Example 158, 2-(3-fluoro-4-((3-(hydroxymethyl)-1,4-dimethyl-1H-pyrazol-5-yl)oxy)phenyl)-5-phenyl-2,5,6,7-tetrahydro-3H-pyrrolo[2,1-c][1,2,4]triazol-3-one] and `Cc1cnn(C)c1Oc1ccc(-n2nc3n(c2=O)C(c2ccccc2)CC3)cc1F` (stereo not drawn) [Example 175, 2-(4-((1,4-dimethyl-1H-pyrazol-5-yl)oxy)-3-fluorophenyl)-5-phenyl-2,5,6,7-tetrahydro-3H-pyrrolo[2,1-c][1,2,4]triazol-3-one] cannot be ordered by pIC50: over 7.00 for the first, over 7.00 for the second.

First: Cc1nc(CN)sc1Oc1ccc(-n2ncn(Cc3c(F)cccc3F)c2=O)cc1 [Example 160, 2-(4-((2-(aminomethyl)-4-methylthiazol-5-yl)oxy)phenyl)-4-(2,6-difluorobenzyl)-2,4-dihydro-3H-1,2,4-triazol-3-one]
Second: Cc1cnn(C)c1Oc1ccc(-n2ncn(Cc3c(F)cccc3F)c2=O)cc1 [Example 176, 4-(2,6-difluorobenzyl)-2-(4-((1,4-dimethyl-1H-pyrazol-5-yl)oxy)phenyl)-2,4-dihydro-3H-1,2,4-triazol-3-one]
The pIC50 of the first is lower: 6.00 to 7.00 for the first, over 7.00 for the second. The second is the more potent here.

First: O=c1n(Cc2c(F)cccc2F)cnn1C1CCC(Oc2ccccc2)C1 (stereo not drawn) [Example 161, 4-(2,6-difluorobenzyl)-2-(3-phenoxycyclopentyl)-2,4-dihydro-3H-1,2,4-triazol-3-one]
Second: O=c1n(Cc2c(F)cccc2F)cnn1-c1cnc(Oc2ccccc2)s1 [Example 165, 4-(2,6-difluorobenzyl)-2-(2-phenoxythiazol-5-yl)-2,4-dihydro-3H-1,2,4-triazol-3-one]
The pIC50 of the first is lower: 5.00 to 6.00 for the first, 6.00 to 7.00 for the second.

`Cc1ncsc1OC1CCC(n2ncn(Cc3c(F)cccc3F)c2=O)CC1` (stereo not drawn) [Example 162, 4-(2,6-difluorobenzyl)-2-(4-((4-methylthiazol-5-yl)oxy)cyclohexyl)-2,4-dihydro-3H-1,2,4-triazol-3-one] and `Cc1nc(Oc2cccnc2)sc1-n1ncn(Cc2c(F)cccc2F)c1=O` [Example 166, 4-(2,6-difluorobenzyl)-2-(4-methyl-2-(pyridin-3-yloxy)thiazol-5-yl)-2,4-dihydro-3H-1,2,4-triazol-3-one] fall in the same range of pIC50: 6.00 to 7.00 for the first, 6.00 to 7.00 for the second.

Compared with `Cc1nc(C(C)N)sc1Oc1ccc(-n2ncn(Cc3c(F)cccc3F)c2=O)cc1F` (stereo not drawn) [Example 163, 2-(4-((2-(1-aminoethyl)-4-methylthiazol-5-yl)oxy)-3-fluorophenyl)-4-(2,6-difluorobenzyl)-2,4-dihydro-3H-1,2,4-triazol-3-one], `Cc1nc(C(F)(F)C(=O)O)sc1Oc1ccc(-n2ncn(Cc3c(F)cccc3F)c2=O)cc1F` [Example 170, 2-(5-(4-(4-(2,6-difluorobenzyl)-5-oxo-4,5-dihydro-1H-1,2,4-triazol-1-yl)-2-fluorophenoxy)-4-methylthiazol-2-yl)-2,2-difluoroacetic acid] is lower in pIC50: over 7.00 for the first, 6.00 to 7.00 for the second. The first is the more potent here.

Compared with `COc1cc(Oc2nc(C)c(-n3ncn(Cc4c(F)cccc4F)c3=O)s2)ccn1` [Example 169, 4-(2,6-difluorobenzyl)-2-(2-((2-methoxypyridin-4-yl)oxy)-4-methylthiazol-5-yl)-2,4-dihydro-3H-1,2,4-triazol-3-one], `Cc1n[nH]c(C)c1Oc1ccc(-n2ncn(Cc3c(F)cccc3F)c2=O)cc1F` [Example 178, 4-(2,6-difluorobenzyl)-2-(4-((3,5-dimethyl-1H-pyrazol-4-yl)oxy)-3-fluorophenyl)-2,4-dihydro-3H-1,2,4-triazol-3-one] is higher in pIC50: 5.00 to 6.00 for the first, over 7.00 for the second.

First: COC(=O)c1ncsc1Nc1ccc(-n2ncn(Cc3c(F)cccc3F)c2=O)cc1 [Example 171, methyl 5-((4-(4-(2,6-difluorobenzyl)-5-oxo-4,5-dihydro-1H-1,2,4-triazol-1-yl)phenyl)amino)thiazole-4-carboxylate]
Second: COC(=O)c1cnc(Oc2ccc(-n3ncn(Cc4c(F)cccc4F)c3=O)cc2F)n1C [Example 173, methyl 2-(4-(4-(2,6-difluorobenzyl)-5-oxo-4,5-dihydro-1H-1,2,4-triazol-1-yl)-2-fluorophenoxy)-1-methyl-1H-imidazole-5-carboxylate]
The pIC50 of the first is lower: 5.00 to 6.00 for the first, 6.00 to 7.00 for the second. The second is the more potent here.

`CC(=O)c1nc(C)c(Oc2ccc(-n3ncn(Cc4c(F)cccc4F)c3=O)cc2F)n1C` [Example 174, 2-(4-((2-acetyl-1,4-dimethyl-1H-imidazol-5-yl)oxy)-3-fluorophenyl)-4-(2,6-difluorobenzyl)-2,4-dihydro-3H-1,2,4-triazol-3-one] and `Cc1nn(C2COC2)c(C)c1Oc1ccc(-n2ncn(Cc3c(F)cccc3F)c2=O)cc1F` [Example 177, 4-(2,6-difluorobenzyl)-2-(4-((3,5-dimethyl-1-(oxetan-3-yl)-1H-pyrazol-4-yl)oxy)-3-fluorophenyl)-2,4-dihydro-3H-1,2,4-triazol-3-one] cannot be ordered by pIC50: over 7.00 for the first, over 7.00 for the second.
